From patent publication US12635693B2, “Activated ferrate compositions and methods” (THE TEXAS A&M UNIVERSITY SYSTEM, priority 2020, dated 2026)

Assay: Removal (oxidation) of Carbamazepine (CBZ) by ferrate with or without amino acids, HPLC
Settings: [ferrate]=100.0 μM
Method: (Experimental conditions: [CBZ]=5.0 μM, [ferrate]=100.0 μM, [amino acid]=100.0 μM, pH 9.0 (10.0 mM borate buffer), reaction time=1 min).
After certain reaction time, a 20.0 μL NH2OH solution (1 M, [NH2OH]: [ferrate]=10.0) was added to quench the reactions. Samples were transferred into high performance liquid chromatography (HPLC) vials and subsequently analyzed using the HPLC method. Each treatment was performed with triplicates and the mean removal values were reported.
Preliminary experiments were conducted to see the influence of amino acids (100.0 μM) on removal of CBZ (5.0 μM) by ferrate (100.0 μM) at pH 9.0 (10.0 mM borate buffer) after 1 min of oxidation. In these experiments, the solution of selected amino acids (FIG. 1) was mixed with CBZ, followed by addition of ferrate.

Row | Compound | removal of CBZ (ferrate only (without proline), [CBZ]=5.0 μM, pH 9.0 (10.0 mM borate buffer), 80 min) | oxidation of CBZ (molar ratio of proline to ferrate 1.0, within 90 s, pH 9.0)
1 | [O]=[Fe](=[O])([O-])[O-] [ferrate] | 70% | 
2 | O=C(O)[C@@H]1CCCN1 [proline] |  | 100%
